Results reported in patent US5191079A, “Quinolinecarboxylic acid derivatives” (priority 1990, dated 1993).
≈ marks a conversion by molar mass, not a printed value. Counter-ions that a name gives are not always drawn.

Legend:
Experiment in all cases: MIC, Experiment 1
Type in all cases: cell-based
Bacillus cereus IAM 1029 = settings: IAM1029, B. cereus IAM 1029, Gram +, read-out: Min. inhib. concentr. (MIC)
Experimental: (§1) The compounds of the present invention (B, E, G, H, M, N, O, P and Q) were each dissolved in dimethylsulfoxide to prepare a solution of 5000 μg/ml in concentration. The compounds of the present invention (I, J and K) and the known compound (Y) were each dissolved in sterilized distilled water to prepare a solution of 5000 μg/ml in concentration. Each solution was diluted with sterilized distilled water to prepare a standard solution with a concentration of each test compound: 1000 μg/ml. The test was carried out by a method as appointed by Japan Society of Chemotherapy [cf. Chemotherapy, 29, 76-79 (1981), TOKYO].
(§2) As to Streptococcus pneumoniae and Streptococcus pyogenes, Brain heart infusion broth (manufactured by DIFCO) was used as the medium for the preculture thereof, and a heart infusion agar medium containing 5% defibrinated horse blood (manufactured by Nissui Seiyaku K. K., Japan) was used as the medium for the measurement of minimum inhibitory concentration (MIC). As to other microorganisms, a sensitivity test broth (manufactured by Nissui Seiyaku K. K.) was used as the medium for the preculture thereof, and a sensitivity test agar medium (manufactured by Nissui Seiyaku K. K.) was used as the medium for the measurement of MIC.

[1] = system: Streptococcus pyogenes Cook; settings: S. pyogenes Cook, Gram +, agar with 5% defibrinated horse blood, read-out: Min. inhib. concentr. (MIC)
Experimental: as §1, §2

[2] = system: Escherichia coli NIHJ JC-2; settings: NIHJJC2, E. coli NIHJ JC-2, Gram -, read-out: Min. inhib. concentr. (MIC)
Experimental: as §1, §2

[3] = system: Bacillus subtilis ATCC 6633; settings: ATCC6633, B. subtilis ATCC 6633, Gram +, read-out: Min. inhib. concentr. (MIC)
Experimental: as §1, §2

[4] = system: Streptococcus pneumoniae IID 554; settings: IID554, S. pneumoniae IID 554, Gram +, agar with 5% defibrinated horse blood, read-out: Min. inhib. concentr. (MIC)
Experimental: as §1, §2

[5] = system: Streptococcus pyogenes Sv; settings: S. pyogenes Sv, Gram +, agar with 5% defibrinated horse blood, read-out: Min. inhib. concentr. (MIC)
Experimental: as §1, §2

[6] = system: Staphylococcus aureus ATCC 9144; settings: ATCC9144, S. aureus ATCC 9144, Gram +, read-out: Min. inhib. concentr. (MIC)
Experimental: as §1, §2

[7] = system: Micrococcus luteus ATCC 9341; settings: ATCC9341, M. luteus ATCC 9341, Gram +, read-out: Min. inhib. concentr. (MIC)
Experimental: as §1, §2

[8] = system: Staphylococcus aureus IID 803; settings: IID803, S. aureus IID 803, Gram +, read-out: Min. inhib. concentr. (MIC)
Experimental: as §1, §2

[9] = system: Klebsiella pneumoniae PCI-602; settings: PCI602, K. pneumoniae PCI-602, Gram -, read-out: Min. inhib. concentr. (MIC)
Experimental: as §1, §2

[10] = system: Proteus mirabilis IFO 3849; settings: IFO3849, P. mirabilis IFO 3849, Gram -, read-out: Min. inhib. concentr. (MIC)
Experimental: as §1, §2

[11] = system: Streptococcus pneumoniae IID 552; settings: IID552, S. pneumoniae IID 552, Gram +, agar with 5% defibrinated horse blood, read-out: Min. inhib. concentr. (MIC)
Experimental: as §1, §2

[12] = system: Staphylococcus aureus Terajima (IID 670); settings: IID670, S. aureus Terajima (IID 670), Gram +, read-out: Min. inhib. concentr. (MIC)
Experimental: as §1, §2

[13] = system: Pseudomonas aeruginosa NCTC 10490; settings: NCTC10490, P. aeruginosa NCTC 10490, Gram -, read-out: Min. inhib. concentr. (MIC)
Experimental: as §1, §2

[14] = system: Staphylococcus aureus Cowan I (IID 975); settings: IID975, S. aureus Cowan I (IID 975), Gram +, read-out: Min. inhib. concentr. (MIC)
Experimental: as §1, §2

[15] = system: Staphylococcus aureus MS-353; settings: MS353, S. aureus MS-353, Gram +, read-out: Min. inhib. concentr. (MIC)
Experimental: as §1, §2

[16] = system: Staphylococcus aureus FDA 243; settings: FDA243, S. aureus FDA 243, Gram +, read-out: Min. inhib. concentr. (MIC)
Experimental: as §1, §2

[17] = system: Acinetobacter calcoaceticus Ac 54; settings: AC54, A. calcoaceticus Ac 54, Gram -, read-out: Min. inhib. concentr. (MIC)
Experimental: as §1, §2

[18] = system: Streptococcus pyogenes Su; settings: S. pyogenes Su, Gram +, agar with 5% defibrinated horse blood, read-out: Min. inhib. concentr. (MIC)
Experimental: as §1, §2

[19] = system: Staphylococcus aureus FDA 209P JC-1; settings: FDA209P, S. aureus FDA 209P JC-1, Gram +, read-out: Min. inhib. concentr. (MIC)
Experimental: as §1, §2

Enterobacter cloacae 963 = settings: E. cloacae 963, Gram -, read-out: Min. inhib. concentr. (MIC)
Experimental: as §1, §2

Structure (SMILES) | MIC (Bacillus cereus IAM 1029) | MIC [1] | MIC [2] | MIC [3] | MIC [4] | MIC [5] | MIC [6] | MIC [7] | MIC [8] | MIC [9] | MIC [10] | MIC [11] | MIC [12] | MIC [13] | MIC [14] | MIC [15] | MIC [16] | MIC [17] | MIC [18] | MIC [19] | other results
CN1Cc2csc3c(C(=O)O)c(=O)c4cc(F)c(N5CCO[C@@H](CO)C5)c1c4n23 [Compound (N), 9,1-(Methylimino)methano-7-fluoro-8-[(2R)-2-hydroxymethylmorpholino]-5-oxo-5H-thiazolo[3,2-a]quinoline-4-caboxylic acid] | 0.025 mg/L (≈ 0.0596 µM) | 0.025 mg/L (≈ 0.0596 µM) | 0.2 mg/L (≈ 0.477 µM) | ≤ 0.006 mg/L | 0.05 mg/L (≈ 0.119 µM) | 0.05 mg/L (≈ 0.119 µM) | ≤ 0.006 mg/L | 0.1 mg/L (≈ 0.238 µM) | 0.013 mg/L (≈ 0.031 µM) | ≤ 0.006 mg/L | 0.39 mg/L (≈ 0.93 µM) | 0.025 mg/L (≈ 0.0596 µM) | 0.025 mg/L (≈ 0.0596 µM) | 0.39 mg/L (≈ 0.93 µM) | 0.013 mg/L (≈ 0.031 µM) | 0.025 mg/L (≈ 0.0596 µM) | ≤ 0.006 mg/L | ≤ 0.006 mg/L | 0.025 mg/L (≈ 0.0596 µM) | 0.013 mg/L (≈ 0.031 µM) | MIC (Enterobacter cloacae 963): 0.39 mg/L (≈ 0.93 µM)
COCC1CN(c2c(F)cc3c(=O)c(C(=O)O)c4scc5n4c3c2N(C)C5)CCN1C (stereo not drawn) [Compound (J), 9,1-(Methylimino)methano-7-fluoro-8-(3-methoxymethyl-4-methyl-1-piperazinyl)-5-oxo-5H-thiazolo[3,2-a]quinoline-4-carboxylic acid hydrochloride] | 0.1 mg/L | 0.1 mg/L | 0.39 mg/L | 0.05 mg/L | 0.1 mg/L | 0.1 mg/L | 0.1 mg/L | 0.39 mg/L | 0.1 mg/L | 0.05 mg/L | 1.56 mg/L | 0.05 mg/L | 0.1 mg/L | 1.56 mg/L | 0.05 mg/L | 0.1 mg/L | 0.05 mg/L | 0.1 mg/L | 0.1 mg/L | 0.05 mg/L | MIC (Enterobacter cloacae 963): 0.39 mg/L
CN1Cc2csc3c(C(=O)O)c(=O)c4cc(F)c(N5CCN(C)C(CF)C5)c1c4n23 (stereo not drawn) [Compound (K), 9,1-(methylimino)methano-7-fluoro-8-(3-fluoromethyl-4-methyl-1-piperazinyl)-5-oxo-5H-thiazolo[3,2-a]quinoline-4-carboxylic acid hydrochloride] | 0.05 mg/L | 0.1 mg/L | 0.2 mg/L | 0.013 mg/L | 0.1 mg/L | 0.1 mg/L | 0.05 mg/L | 0.39 mg/L | 0.05 mg/L | 0.013 mg/L | 0.39 mg/L | 0.05 mg/L | 0.05 mg/L | 0.78 mg/L | 0.05 mg/L | 0.05 mg/L | 0.05 mg/L | 0.025 mg/L | 0.05 mg/L | 0.05 mg/L | MIC (Enterobacter cloacae 963): 0.2 mg/L
CC1CN(c2c(F)cc3c(=O)c(C(=O)O)c4scc5n4c3c2N(C)C5)CCO1 (stereo not drawn) [Compound (A), 9,1-(Methylimino)methano-7-fluoro-8-(2-methylmorpholino)-5-oxo-5H-thiazolo[3,2-a]quinoline-4-carboxylic acid] | 0.013 mg/L (≈ 0.0322 µM) | 0.025 mg/L (≈ 0.062 µM) | 0.1 mg/L (≈ 0.248 µM) | ≤ 0.006 mg/L | 0.05 mg/L (≈ 0.124 µM) | 0.025 mg/L (≈ 0.062 µM) | 0.013 mg/L (≈ 0.0322 µM) | 0.1 mg/L (≈ 0.248 µM) | ≤ 0.006 mg/L | ≤ 0.006 mg/L | 0.2 mg/L (≈ 0.496 µM) | 0.013 mg/L (≈ 0.0322 µM) | 0.013 mg/L (≈ 0.0322 µM) | 0.39 mg/L (≈ 0.967 µM) | 0.013 mg/L (≈ 0.0322 µM) | 0.013 mg/L (≈ 0.0322 µM) | ≤ 0.006 mg/L | ≤ 0.006 mg/L | 0.025 mg/L (≈ 0.062 µM) | 0.013 mg/L (≈ 0.0322 µM) | MIC (Enterobacter cloacae 963): 0.2 mg/L (≈ 0.496 µM)
CN1Cc2csc3c(C(=O)O)c(=O)c4cc(F)c(N5CCO[C@H](CO)C5)c1c4n23 [Compound (M), 9,1-(Methylimino)methano-7-fluoro-8-[ (2S)-2-hydroxymethylmorpholino]-5-oxo-5H-thiazolo[3,2-a]quinoline-4-carboxylic acid] | 0.025 mg/L (≈ 0.0596 µM) | 0.05 mg/L (≈ 0.119 µM) | 0.1 mg/L (≈ 0.238 µM) | ≤ 0.006 mg/L | 0.05 mg/L (≈ 0.119 µM) | 0.05 mg/L (≈ 0.119 µM) | ≤ 0.006 mg/L | 0.2 mg/L (≈ 0.477 µM) | 0.013 mg/L (≈ 0.031 µM) | ≤ 0.006 mg/L | 0.39 mg/L (≈ 0.93 µM) | 0.05 mg/L (≈ 0.119 µM) | 0.025 mg/L (≈ 0.0596 µM) | 0.39 mg/L (≈ 0.93 µM) | 0.013 mg/L (≈ 0.031 µM) | 0.025 mg/L (≈ 0.0596 µM) | ≤ 0.006 mg/L | ≤ 0.006 mg/L | 0.025 mg/L (≈ 0.0596 µM) | 0.013 mg/L (≈ 0.031 µM) | MIC (Enterobacter cloacae 963): 0.2 mg/L (≈ 0.477 µM)
CN1CCN(c2c(F)cc3c(=O)c(C(=O)O)c4scc5n4c3c2OC5)CC1 [Compound (Y), 9,1-Epoxymethano-7-fluoro-8-(4-methyl-1-piperazinyl)-5-oxo-5H-thiazolo[3,2-a]quinoline-4-carboxylic acid hydrochloride, reference compound] | 0.39 mg/L | 0.1 mg/L | 0.1 mg/L | 0.1 mg/L | 0.2 mg/L | 0.2 mg/L | 0.05 mg/L | 1.56 mg/L | 0.2 mg/L | 0.025 mg/L | 0.2 mg/L | 0.1 mg/L | 0.1 mg/L | 0.78 mg/L | 0.1 mg/L | 0.1 mg/L | 0.05 mg/L | 0.2 mg/L | 0.1 mg/L | 0.2 mg/L | MIC (Enterobacter cloacae 963): 0.1 mg/L
